Laboratory results published in patent publication US20220313698A1, “MODULATORS OF CYSTIC FIBROSIS TRANSMEMBRANE CONDUCTANCE REGULATOR” (Vertex Pharmaceuticals Incorporated, priority 2019, published 2022).
Several values for one entry are separate records, joined by “and”; a condition that tells them apart may be missing. Equal entries are not always repeated. Where two headings read alike, the source gives them in different places.

What was measured:
[1] = snar bond, 15-membered ring
[2] = target: T1, CFTR-mediated chloride transport (Homo sapiens, UniProt P13569); assay: Corrector Assay A - membrane potential dye assay (enteroid cells); settings: for Corrector Assay A % activity: % of chloride transport of triple combination control (1 μM (14S)-dispiro macrocycle + 3 μM tezacaftor + 300 nM ivacaftor); for EC50: read-out: Corrector Assay A EC50, human intestinal enteroid cells, 18-24 h incubation, acute 10 μM forskolin + 300 nM ivacaftor
Experimental: (§1) Base medium (ADF+++) consisted of Advanced DMEM/Ham's F12, 2 mM Glutamax, 10 mM HEPES, 1 μg/ml penicillin/streptomycin.
(§2) Intestinal enteroid maintenance medium (IEMM) consisted of ADF+++, 1×B27 supplement, 1×N2 supplement, 1.25 mM N-acetyl cysteine, 10 mM Nicotinamide, 50 ng/mL hEGF, 10 nM Gastrin, 1 μg/mL hR-spondin-1, 100 ng/mL hNoggin, TGF-b type 1 inhibitor A-83-01, 100 μg/mL Primocin, 10 μM P38 MAPK inhibitor SB202190.
(§3) Bath 1 Buffer consisted of 1 mM MgCl2, 160 mM NaCl, 4.5 mM KCl, 10 mM HEPES, 10 mM Glucose, 2 mM CaCl2).
(§4) Chloride Free Buffer consisted of 1 mM Magnesium Gluconate, 2 mM Calcium Gluconate, 4.5 mM Potassium Gluconate, 160 mM Sodium Gluconate, 10 mM HEPES, 10 mM Glucose.
(§5) Bath 1 Dye Solution consisted of Bath 1 Buffer, 0.04% Pluronic F127, 20 μM Methyl Oxonol, 30 μM CaCCinh-A01, 30 μM Chicago Sky Blue.
(§6) Chloride Free Dye Solution consisted of Chloride Free Buffer, 0.04% Pluronic F127, 20 μM Methyl Oxonol, 30 μM CaCCinh-A01, 30 μM Chicago Sky Blue.
(§7) Chloride Free Dye Stimulation Solution consisted of Chloride Free Dye Solution, 10 μM forskolin, 100 μM IBMX, and 300 nM Ivacaftor.
(§8) Cells were recovered in cell recovery solution, collected by centrifugation at 650 rpm for 5 min at 4° C., resuspended in TryPLE and incubated for 5 min at 37° C. Cells were then collected by centrifugation at 650 rpm for 5 min at 4° C. and resuspended in IEMM containing 10 μM ROCK inhibitor (RI). The cell suspension was passed through a 40 μm cell strainer and resuspended at 1×10^6 cells/mL in IEMM containing 10 μM RI. Cells were seeded at 5000 cells/well into multi-well plates and incubated for overnight at 37° C., 95% humidity and 5% CO2 prior to assay.
Briefly, cells were washed 5 times in Bath 1 Buffer. Bath 1 Dye Solution was added and the cells were incubated for 25 min at room temperature. Following dye incubation, cells were washed 3 times in Chloride Free Dye Solution. Chloride transport was initiated by addition of Chloride Free Dye Stimulation Solution and the fluorescence signal was read for 15 min. The CFTR-mediated chloride transport for each condition was determined from the AUC of the fluorescence response to acute forskolin and 300 nM N-[2,4-bis(1,1-dimethylethyl)-5-hydroxyphenyl]-1,4-dihydro-4-oxoquinoline-3-carboxamide stimulation. Chloride transport was then expressed as a percentage of the chloride transport following treatment with 1 μM (14S)-8-[3-(2-{Dispiro[2.0.2.1]heptan-7-yl}ethoxy)-1H-pyrazol-1-yl]-12,12-dimethyl-2λ^6-thia-3,9,11,18,23-pentaazatetracyclo[17.3.1.111,14.05,10]tetracosa-1(22),5,7,9,19(23),20-hexaene-2,2,4-trione, 3 μM (R)-1-(2,2-difluorobenzo[d][1,3]dioxol-5-yl)-N-(1-(2,3-dihydroxypropyl)-6-fluoro-2-(1-hydroxy-2-methylpropan-2-yl)-1H-indol-5-yl)cyclopropanecarboxamide and 300 nM acute N-[2,4-bis(1,1-dimethylethyl)-5-hydroxyphenyl]-1,4-dihydro-4-oxoquinoline-3-carboxamide triple combination control (% Activity).

[3] = snar bond
[4] = target: T1, CFTR-mediated chloride transport; assay: Corrector Assay B - membrane potential dye assay (enteroid cells); settings: for Corrector Assay B % activity: % of chloride transport of triple combination control (3 μM Compound A + 3 μM tezacaftor + 300 nM ivacaftor); for EC50: read-out: Corrector Assay B EC50, human intestinal enteroid cells, 18-24 h incubation, acute 10 μM forskolin + 300 nM ivacaftor;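 as to all read-outs here: methyl oxonol membrane potential fluorescence followed over 15 min after switching to chloride-free buffer with forskolin, 100 µM IBMX and ivacaftor, in presence of CaCC blockers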
Experimental: as §1, §2, §3, §4, §5, §6, §7, §8
Briefly, cells were washed 5 times in Bath 1 Buffer. Bath 1 Dye Solution was added and the cells were incubated for 25 min at room temperature. Following dye incubation, cells were washed 3 times in Chloride Free Dye Solution. Chloride transport was initiated by addition of Chloride Free Dye Stimulation Solution and the fluorescence signal was read for 15 min. The CFTR-mediated chloride transport for each condition was determined from the AUC of the fluorescence response to acute forskolin and 300 nM N-[2,4-bis(1,1-dimethylethyl)-5-hydroxyphenyl]-1,4-dihydro-4-oxoquinoline-3-carboxamide stimulation. Chloride transport was then expressed as a percentage of the chloride transport following treatment with 3 μM Compound A, 3 μM (R)-1-(2,2-difluorobenzo[d][1,3]dioxol-5-yl)-N-(1-(2,3-dihydroxypropyl)-6-fluoro-2-(1-hydroxy-2-methylpropan-2-yl)-1H-indol-5-yl)cyclopropanecarboxamide and 300 nM acute N-[2,4-bis(1,1-dimethylethyl)-5-hydroxyphenyl]-1,4-dihydro-4-oxoquinoline-3-carboxamide triple combination control (% Activity).

[5] = from CC1(C)C[C@H](CCC(Nc2cccc(S(=O)(=O)NC(=O)c3ccc(C(C)(C)C)nc3F)n2)c2cccc(Br)n2)CN1, 15-membered ring, K2CO3, NMP, 21.9 mM, 165.0 °C, 16.0 h

C=CC1CC[C@@H]2CN(c3nc(C(C)(C)C)ccc3C(=O)NS(=O)(=O)c3cccc(n3)N1)C(C)(C)C2 (stereo partly drawn)
ring closure, isolated yield ([1]; from C=CC(CC[C@@H]1CN(C(=O)OC(C)(C)C)C(C)(C)C1)Nc1cccc(S(=O)(=O)NC(=O)c2ccc(C(C)(C)C)nc2F)n1, K2CO3, NMP, 159.0 mM, 150.0 °C, 2 steps): 22% and 25%

CC(C)(C)c1ccnc(C2CC[C@@H]3CN(c4cc(C(C)(C)C)c(Br)cc4C(=O)NS(=O)(=O)c4cccc(n4)N2)C(C)(C)C3)c1 (stereo partly drawn)
ring closure, isolated yield ([1]; from CC1(C)C[C@H](CCC(Nc2cccc(S(=O)(=O)NC(=O)c3cc(Br)c(C(C)(C)C)cc3F)n2)c2cc(C(C)(C)C)ccn2)CN1, Cs2CO3, DMSO, 58.3 mM, 150.0 °C, 96.0 h): 17%

CC1(C)CC2CN1c1nc(-n3ccc(OCCC4C5(CC5)C45CC5)n3)ccc1C(=O)NS(=O)(=O)c1cccc(n1)NCCC2CCc1ccccc1 (stereo not drawn)
ring closure, isolated yield ([1]; from CC1(C)CC(C(CCNc2cccc(S(=O)(=O)NC(=O)c3ccc(-n4ccc(OCCC5C6(CC6)C56CC6)n4)nc3Cl)n2)CCc2ccccc2)CN1, K2CO3, NMP, 64.5 mM, 150.0 °C, 20.0 h, 2 steps): 61%

CC1(C)C[C@@H]2CCC(c3ccccn3)Nc3cccc(n3)S(=O)(=O)NC(=O)c3ccc(-n4ccc(OCCC5(C(F)(F)F)CC5)n4)nc3N1C2 (stereo partly drawn)
ring closure, isolated yield ([1]; from CC1(C)C[C@H](CCC(Nc2cccc(S(=O)(=O)NC(=O)c3ccc(-n4ccc(OCCC5(C(F)(F)F)CC5)n4)nc3Cl)n2)c2ccccn2)CN1, K2CO3/3A MS, DMSO, 26.1 mM, 155.0 °C, 18.0 h, 2 steps): 38%

CC(C)(C)c1ccc2c(n1)N1C[C@@H](CC[C@@H](c3cccc(Br)n3)Nc3cccc(n3)S(=O)(=O)NC2=O)CC1(C)C (single isomer, unassigned) [Compound 214]
Corrector Assay A % activity [2]: ++ (++ is 30-60%) | EC50 [2]: < 1000 nM | ring closure, yield after HPLC [3, 5]: 45%

CC(C)(C)c1ccc2c(n1)N1C[C@@H](CC[C@H](c3cccc(Br)n3)Nc3cccc(n3)S(=O)(=O)NC2=O)CC1(C)C (single isomer, unassigned) [Compound 215]
Corrector Assay A % activity [2]: +++ (+++ is >60%) | EC50 [2]: < 1000 nM | ring closure, yield after HPLC [3, 5]: 46%

CC(C)C1CC[C@@H]2CN(c3nc(-n4ccc(OCCC5C6(CC6)C56CC6)n4)ccc3C(=O)NS(=O)(=O)c3cccc(n3)N1)C(C)(C)C2 (single isomer, unassigned; diastereomer 1)
ring closure, yield after HPLC ([3]; from CC(C)C(CC[C@H]1CNC(C)(C)C1)Nc1cccc(S(=O)(=O)NC(=O)c2ccc(-n3ccc(OCCC4C5(CC5)C45CC5)n3)nc2Cl)n1, 15-membered ring, K2CO3, NMP, 20.9 mM, 165.0 °C, 16.0 h): 68%

CC(C)(C)c1ccc2c(n1)N1C[C@@H](CCC(c3ccc(Cl)cn3)Nc3cccc(n3)S(=O)(=O)NC2=O)CC1(C)C (single isomer, unassigned; diastereomer 2)
ring closure, yield after HPLC ([3]; from CC1(C)C[C@H](CCC(Nc2cccc(S(=O)(=O)NC(=O)c3ccc(C(C)(C)C)nc3F)n2)c2ccc(Cl)cn2)CN1, 15-membered ring, K2CO3/3A MS, NMP, 55.9 mM, 150.0 °C, 4.0 h, 2 steps): 34%

CC(C)C1CC[C@@H]2CN(c3nc(-n4ccc(OCCC5C6(CC6)C56CC6)n4)ccc3C(=O)NS(=O)(=O)c3cccc(n3)N1)C(C)(C)C2 (single isomer, unassigned; diastereomer 2)
ring closure, yield after HPLC ([3]; from CC(C)C(CC[C@H]1CNC(C)(C)C1)Nc1cccc(S(=O)(=O)NC(=O)c2ccc(-n3ccc(OCCC4C5(CC5)C45CC5)n3)nc2Cl)n1, 15-membered ring, K2CO3, NMP, 23.0 mM, 165.0 °C, 16.0 h): 60%

CC(C)(C)c1ccnc([C@H]2CC[C@@H]3CN(c4nc(Br)ccc4C(=O)NS(=O)(=O)c4cccc(n4)N2)C(C)(C)C3)c1 [Compound 55, (14S,17R)-8-bromo-17-(4-tert-butylpyridin-2-yl)-12,12-dimethyl-2λ^6-thia-3,9,11,18,23-pentaazatetracyclo[17.3.1.111,14.05,10]tetracosa-1(22),5,7,9,19(23),20-hexaene-2,2,4-trione]
Corrector Assay A % activity [2]: ++ (++ is 30-60%) | EC50 [2]: < 1000 nM | ring closure, yield after HPLC ([3]; from CC1(C)C[C@@H](CCC(Nc2cccc(S(=O)(=O)NC(=O)c3ccc(Br)nc3Cl)n2)c2cc(C(C)(C)C)ccn2)CN1, 15-membered ring, K2CO3, DMA, 97.8 mM, 140.0 °C, 7.0 h): 23%

CC1(C)C[C@@H]2CC[C@H](c3cccc(C(F)(F)F)n3)Nc3cccc(n3)S(=O)(=O)NC(=O)c3ccc(Br)nc3N1C2 [Compound 56, (14S,17R)-8-Bromo-12,12-dimethyl-17-[6-(trifluoromethyl)pyridin-2-yl]-2λ^6-thia-3,9,11,18,23-pentaazatetracyclo[17.3.1.111,14.05,10]tetracosa-1(22),5,7,9,19(23),20-hexaene-2,2,4-trione]
Corrector Assay A % activity [2]: + (+ is <30%) | EC50 [2]: > 3000 nM | ring closure, yield after HPLC ([3]; from CC1(C)C[C@@H](CCC(Nc2cccc(S(=O)(=O)NC(=O)c3ccc(Br)nc3Cl)n2)c2cccc(C(F)(F)F)n2)CN1, 15-membered ring, K2CO3, DMA, 98.5 mM, 140.0 °C): 21%

CC(C)(C)c1ccc2c(n1)N1C[C@@H](CCCn3ccc4ccc(cc43)S(=O)(=O)NC2=O)CC1(C)C [Compound 260, (5S)-11-tert-Butyl-7,7-dimethyl-17λ^6-thia-1,8,10,16-tetraazapentacyclo[16.5.2.15,8.09,14.021,24]hexacosa-9(14),10,12,18,20,22,24-heptaene-15,17,17-trione]
Corrector Assay A % activity [2]: + (+ is <30%) | EC50 [2]: < 1000 nM | ring closure, yield after HPLC ([3]; from CC(C)(C)OC(=O)N1C[C@@H](CCCn2ccc3ccc(S(=O)(=O)NC(=O)c4ccc(C(C)(C)C)nc4Cl)cc32)CC1(C)C, 15-membered ring, K2CO3, NMP, 118.8 mM, 160.0 °C, 2 steps): 5%

CC1(C)CCCc2cc3c(nc21)N1C[C@@H](CCCNc2cccc(n2)S(=O)(=O)NC3=O)CC1(C)C [Compound 265, (18S)-11,11,16,16-Tetramethyl-2λ^6-thia-3,13,15,22,27-pentaazapentacyclo[21.3.1.115,18.05,14.07,12]octacosa-1(27),5(14),6,12,23,25-hexaene-2,2,4-trione]
Corrector Assay A % activity [2]: ++ (++ is 30-60%) | EC50 [2]: < 1000 nM | ring closure, yield after HPLC ([3]; from CC1(C)C[C@H](CCCNc2cccc(S(=O)(=O)NC(=O)c3cc4c(nc3Cl)C(C)(C)CCC4)n2)CN1, 15-membered ring, K2CO3/3A MS, NMP, 33.9 mM, 170.0 °C, 84.0 h, 2 steps): 11%

CC(C)(C)c1ccc2c(n1)N1C[C@@H](CCCNc3cccc(n3)S(=O)(=O)NC2=O)CC1(C)C [Compound 296, (14S)-8-tert-Butyl-12,12-dimethyl-2λ^6-thia-3,9,11,18,23-pentaazatetracyclo[17.3.1.111,14.05,10]tetracosa-1(23),5(10),6,8,19,21-hexaene-2,2,4-trione]
Corrector Assay A % activity [2]: +++ (+++ is >60%) | EC50 [2]: < 1000 nM | Corrector Assay B % activity [4]: +++ (+++ is >60%) | EC50 [4]: < 1000 nM | ring closure, yield after HPLC ([3]; from CC1(C)C[C@H](CCCNc2cccc(S(=O)(=O)NC(=O)c3ccc(C(C)(C)C)nc3Cl)n2)CN1, 15-membered ring, K2CO3/3A MS, DMSO, 53.4 mM, 165.0 °C, 60.0 h, 2 steps): 43%

CC1(C)C[C@@H]2CCCN(Cc3nn[nH]n3)c3cccc(n3)S(=O)(=O)NC(=O)c3ccc(-n4ccc(OCCC5(C(F)(F)F)CC5)n4)nc3N1C2 [Compound 372, (14S)-12,12-Dimethyl-18-[(2H-1,2,3,4-tetrazol-5-yl)methyl]-8-(3-{2-[1-(trifluoromethyl)cyclopropyl]ethoxy}-1H-pyrazol-1-yl)-2λ^6-thia-3,9,11,18,23-pentaazatetracyclo[17.3.1.111,14.05,10]tetracosa-1(23),5(10),6,8,19,21-hexaene-2,2,4-trione]
Corrector Assay B % activity [4]: +++ (+++ is >60%) | EC50 [4]: 1000 to 3000 nM | ring closure, yield after HPLC ([3]; from CC1(C)C[C@H](CCCN(Cc2nn[nH]n2)c2cccc(S(=O)(=O)NC(=O)c3ccc(-n4ccc(OCCC5(C(F)(F)F)CC5)n4)nc3Cl)n2)CN1, 15-membered ring, K2CO3/3A MS, DMSO, 25.8 mM, 155.0 °C, 18.0 h, 2 steps): 18%

CC1(C)C[C@@H]2CCCn3nnnc3CNc3cccc(n3)S(=O)(=O)NC(=O)c3ccc(-n4ccc(OCCC5(C(F)(F)F)CC5)n4)nc3N1C2 [Compound 380, (12S)-14,14-dimethyl-18-(3-{2-[1-(trifluoromethyl)cyclopropyl]ethoxy}-1H-pyrazol-1-yl)-24λ^6-thia-2,5,6,7,8,15,17,23,29-noNaazapentacyclo [23.3.1.112,15.04,8.016,21]triaconta-1(28),4,6,16,18,20,25(29),26-octaene-22,24,24-trione]
Corrector Assay B % activity [4]: +++ (+++ is >60%) | EC50 [4]: < 1000 nM | ring closure, yield after HPLC ([3]; from CC1(C)C[C@H](CCCn2nnnc2CNc2cccc(S(=O)(=O)NC(=O)c3ccc(-n4ccc(OCCC5(C(F)(F)F)CC5)n4)nc3Cl)n2)CN1, 18-membered ring, K2CO3/3A MS, DMSO, 35.1 mM, 155.0 °C, 16.0 h, 2 steps): 41%

CC1(C)C[C@@H]2CCCN(CC(O)CO)c3cccc(n3)S(=O)(=O)NC(=O)c3ccc(-n4ccc(OCCC5(C(F)(F)F)CC5)n4)nc3N1C2 (stereo partly drawn) [Compound 382, (14S)-18-(2,3-dihydroxypropyl)-12,12-dimethyl-8-(3-{2-[1-(trifluoromethyl)cyclopropyl]ethoxy}-1H-pyrazol-1-yl)-2λ^6-thia-3,9,11,18,23-pentaazatetracyclo [17.3.1.111,14.05,10]tetracosa-1(22),5,7,9,19(23),20-hexaene-2,2,4-trione]
Corrector Assay B % activity [4]: +++ (+++ is >60%) | EC50 [4]: < 1000 nM | ring closure, yield after HPLC ([3]; from CC(C)(C)OC(=O)N1C[C@@H](CCCN(CC2COC(C)(C)O2)c2cccc(S(=O)(=O)NC(=O)c3ccc(-n4ccc(OCCC5(C(F)(F)F)CC5)n4)nc3Cl)n2)CC1(C)C, 15-membered ring, K2CO3/4A MS, DMSO, 38.5 mM, 140.0 °C, 2 steps): 59%
